What follows are compounds tested against SMYD3 (Homo sapiens (Human), UniProt Q9H7B4) (assay: SMYD3 biochemical assay (SMYD3 enzyme assay on MEKK2 protein substrate, 3H-SAM scintillation proximity assay)). Conditions: read-out: SMYD3 Biochem IC50 (μM)*.
In short: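 Native full-length human SMYD3, expressed in E. coli, was preincubated with compound for 30 min at room temperature in 25 mM Tris-Cl pH 8.0, 1 mM TCEP, 0.005% BSG and 0.005% Tween 20. ³H-SAM plus GST-MEKK2 then started the reaction. It was stopped with unlabeled SAM (100 uM final), and methylated MEKK2 was read by SPA.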

Chain of SMYD3 (Q9H7B4 whole entry): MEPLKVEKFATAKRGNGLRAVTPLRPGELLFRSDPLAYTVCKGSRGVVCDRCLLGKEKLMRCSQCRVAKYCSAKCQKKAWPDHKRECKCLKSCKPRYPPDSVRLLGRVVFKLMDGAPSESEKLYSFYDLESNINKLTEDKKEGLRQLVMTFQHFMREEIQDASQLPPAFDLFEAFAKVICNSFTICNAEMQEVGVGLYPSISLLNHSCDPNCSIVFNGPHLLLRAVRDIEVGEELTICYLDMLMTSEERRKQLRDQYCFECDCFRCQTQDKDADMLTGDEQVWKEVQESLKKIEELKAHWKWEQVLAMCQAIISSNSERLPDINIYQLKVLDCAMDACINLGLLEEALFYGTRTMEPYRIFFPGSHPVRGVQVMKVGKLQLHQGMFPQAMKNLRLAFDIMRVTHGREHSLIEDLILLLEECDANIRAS

Going from CN1C(=O)Cc2cc(C(=O)NC3CCN(C(=O)[C@@H](N)Cc4ccc(O)cc4)CC3)ccc21 [compound 82, N-(1-(L-tyrosyl)piperidin-4-yl)-1-methyl-2-oxoindoline-5-carboxamide] to CN1C(=O)Cc2ccc(C(=O)NC3CCN(C(=O)[C@@H](N)Cc4ccc(O)cc4)CC3)cc21 [compound 88, N-(1-(L-tyrosyl)piperidin-4-yl)-1-methyl-2-oxoindoline-6-carboxamide], the IC50 rises from 8.7 µM to 193 µM (22-fold). The first is the more potent here.

Going from CN1C(=O)Cc2cc(C(=O)NC3CCN(C(=O)[C@@H](N)Cc4c[nH]c5ccccc45)CC3)ccc21 [compound 83, N-(1-(L-tryptophyl)piperidin-4-yl)-1-methyl-2-oxoindoline-5-carboxamide] to N[C@@H](Cc1c[nH]c2ccccc12)C(=O)N1CCC(CNC(=O)c2ccc3c(c2)CC(=O)N3)CC1 [compound 103, N-((1-(L-tryptophyl)piperidin-4-yl)methyl)-2-oxoindoline-5-carboxamide], the IC50 falls from 12.9 µM to 2.74 µM (4.7-fold).

Compared with CN1C(=O)Cc2cc(C(=O)N[C@H]3CC[C@H](N)CC3)ccc21 [compound 84, N-((1r,4r)-4-aminocyclohexyl)-1-methyl-2-oxoindoline-5-carboxamide], N[C@H]1CC[C@H](NC(=O)c2ccc3c(c2)NC(=O)CC3)CC1 [compound 91, N-((1r,4r)-4-aminocyclohexyl)-2-oxo-1,2,3,4-tetrahydroquinoline-7-carboxamide] is 5.4-fold higher in IC50: 16.7 µM for the first, 89.5 µM for the second. The first is the more potent here.

Compared with COc1cc(C(=O)N[C@H]2CC[C@H](N)CC2)cc2c1OCC(=O)N2 [compound 85, N-((1r,4r)-4-aminocyclohexyl)-8-methoxy-3-oxo-3,4-dihydro-2H-benzo[b][1,4]oxazine-6-carboxamide], N[C@H]1CC[C@H](NC(=O)c2cccc3c2OCC(=O)N3)CC1 [compound 115, N-((1r,4r)-4-aminocyclohexyl)-3-oxo-3,4-dihydro-2H-benzo[b][1,4]oxazine-8-carboxamide] is 3-fold lower in IC50: 184 µM for the first, 61.2 µM for the second. The second is the more potent here.

Going from CC(NC(=O)c1ccc2c(c1)CC(=O)N2)C1CCN(C(=O)[C@@H](C)N)CC1 (stereo partly drawn) [compound 87, N-(1-(1-(D-alanyl)piperidin-4-yl)ethyl)-2-oxoindoline-5-carboxamide] to CC(NC(=O)c1ccc2c(c1)CCC(=O)N2)C1CCN(C(=O)[C@H](C)N)CC1 (stereo partly drawn) [compound 96, N-(1-(1-(L-alanyl)piperidin-4-yl)ethyl)-2-oxo-1,2,3,4-tetrahydroquinoline-6-carboxamide], the IC50 rises from 9.37 µM to 193 µM (21-fold). The first is the more potent here.

Compared with N[C@H]1CC[C@H](NC(=O)c2ccc3[nH]c(=O)oc3c2)CC1 [compound 90, N-((1r,4r)-4-aminocyclohexyl)-2-oxo-2,3-dihydrobenzo[d]oxazole-6-carboxamide], N[C@H]1CC[C@H](NC(=O)c2ccc3ncsc3c2)CC1 [compound 118, N-((1r,4r)-4-aminocyclohexyl)benzo[d]thiazole-6-carboxamide] is 14-fold higher in IC50: 9.76 µM for the first, 139 µM for the second. The first is the more potent here.

First: CC(NC(=O)c1ccc2c(c1)NC(=O)CC2)C1CCN(C(=O)[C@H](C)N)CC1 (stereo partly drawn) [compound 92, N-(1-(1-(L-alanyl)piperidin-4-yl)ethyl)-2-oxo-1,2,3,4-tetrahydroquinoline-7-carboxamide]
Second: CC(NC(=O)c1ccc2oc(=O)ccc2c1)C1CCN(C(=O)[C@H](C)N)CC1 (stereo partly drawn) [compound 95, N-(1-(1-(L-alanyl)piperidin-4-yl)ethyl)-2-oxo-2H-chromene-6-carboxamide]
The IC50 of the first is 3-fold lower: 50 µM for the first, 150 µM for the second.

Going from CC(NC(=O)c1ccc2cc(N)ccc2c1)C1CCN(C(=O)[C@H](C)N)CC1 (stereo partly drawn) [compound 97, N-(1-(1-(L-alanyl)piperidin-4-yl)ethyl)-6-amino-2-naphthamide] to CC(NC(=O)c1ccc2ccc(O)nc2c1)C1CCN(C(=O)[C@H](C)N)CC1 (stereo partly drawn) [compound 120, N-(1-(1-(L-alanyl)piperidin-4-yl)ethyl)-2-hydroxyquinoline-7-carboxamide], the IC50 falls from 146 µM to 86.9 µM (1.7-fold).

First: COc1cc(C(=O)NC(C)C2CCN(C(=O)[C@H](C)N)CC2)cc2c1OCC(=O)N2 (stereo partly drawn) [compound 98, N-(1-(1-(L-alanyl)piperidin-4-yl)ethyl)-8-methoxy-3-oxo-3,4-dihydro-2H-benzo[b][1,4]oxazine-6-carboxamide]
Second: CCOC(=O)C(NC(=O)c1ccc2c(c1)CC(=O)N2)C1CCN(C(=O)[C@H](C)N)CC1 (stereo partly drawn) [compound 104, ethyl 2-(1-(L-alanyl)piperidin-4-yl)-2-(2-oxoindoline-5-carboxamido)acetate]
The IC50 of the first is 100-fold higher: 151 µM for the first, 1.51 µM for the second. The second is the more potent here.

Going from CC(NC(=O)c1ccc2ncc(O)nc2c1)C1CCN(C(=O)[C@H](C)N)CC1 (stereo partly drawn) [compound 99, N-(1-(1-(L-alanyl)piperidin-4-yl)ethyl)-3-hydroxyquinoxaline-6-carboxamide] to C[C@@H](N)C(=O)N1CC[C@@H](CNC(=O)c2ccc3c(c2)CC(=O)N3)C1 [compound 133, N-(((S)-1-(D-alanyl)pyrrolidin-3-yl)methyl)-2-oxoindoline-5-carboxamide], the IC50 falls from 35.7 µM to 10.7 µM (3.3-fold).

First: O=C1Cc2cc(C(=O)NC[C@H]3CCNC3)ccc2N1 [compound 101, (S)-2-oxo-N-(pyrrolidin-3-ylmethyl)indoline-5-carboxamide]
Second: O=C1Cc2cc(C(=O)NCC3(O)CCNCC3)ccc2N1 [compound 105, N-((4-hydroxypiperidin-4-yl)methyl)-2-oxoindoline-5-carboxamide]
The IC50 of the first is 1.6-fold lower: 25.4 µM for the first, 40.4 µM for the second. The first is the more potent here.

Compared with N[C@@H](Cc1ccc(O)cc1)C(=O)N1CCC(CNC(=O)c2ccc3c(c2)CC(=O)N3)CC1 [compound 102, N-((1-(L-tyrosyl)piperidin-4-yl)methyl)-2-oxoindoline-5-carboxamide], C[C@H](N)C(=O)N1CCC(O)(CNC(=O)c2ccc3c(c2)CC(=O)N3)CC1 [compound 112, N-((1-(L-alanyl)-4-hydroxypiperidin-4-yl)methyl)-2-oxoindoline-5-carboxamide] is 1.6-fold higher in IC50: 1.86 µM for the first, 3.04 µM for the second.

NCCCCNC(=O)c1ccc2c(c1)CC(=O)N2 [compound 106, N-(4-aminobutyl)-2-oxoindoline-5-carboxamide] and C[C@H](N)C(=O)NCCCCNC(=O)c1ccc2c(c1)CC(=O)N2 [compound 107, (S)-N-(4-(2-aminopropanamido)butyl)-2-oxoindoline-5-carboxamide] are within 1.5-fold of each other in IC50: 13.4 µM for the first, 14 µM for the second.

Going from CCOC(=O)CCCC(=O)N[C@H]1CC[C@H](N)CC1 [compound 108, ethyl 5-(((1r,4r)-4-aminocyclohexyl)amino)-5-oxopentanoate] to CCC1(C(=O)N[C@H]2CC[C@H](N)CC2)CCCN1 (some centres unmarked) [compound 111, N-((1r,4r)-4-aminocyclohexyl)-2-ethylpyrrolidine-2-carboxamide], the IC50 rises from 92.2 µM to 150 µM (1.6-fold). The first is the more potent here.

CC(CN1CCCC1)C(=O)NC(c1ccccc1)C1CCNCC1 (centres unmarked) [compound 109, 2-methyl-N-(phenyl(piperidin-4-yl)methyl)-3-(pyrrolidin-1-yl)propanamide] and Cc1cc2[nH]c(C(=O)NC(c3ccccc3)C3CCNCC3)cc2o1 (centres unmarked) [compound 110, 2-methyl-N-(phenyl(piperidin-4-yl)methyl)-4H-furo[3,2-b]pyrrole-5-carboxamide] are within 1.5-fold of each other in IC50: 79 µM for the first, 82.8 µM for the second.

First: C[C@H](N)C(=O)N1CCC(F)(CNC(=O)c2ccc3c(c2)CC(=O)N3)CC1 [compound 113, N-((1-(L-alanyl)-4-fluoropiperidin-4-yl)methyl)-2-oxoindoline-5-carboxamide]
Second: CCOC(=O)C1(CNC(=O)c2ccc3c(c2)CC(=O)N3)CCN(C(=O)[C@H](C)N)CC1 [compound 132, ethyl 1-(L-alanyl)-4-((2-oxoindoline-5-carboxamido)methyl)piperidine-4-carboxylate]
The IC50 of the first is 4.1-fold higher: 3.86 µM for the first, 0.94 µM for the second.

Going from C[C@@H](N)C(=O)NCCCCNC(=O)c1ccc2c(c1)CC(=O)N2 [compound 114, (R)-N-(4-(2-aminopropanamido)butyl)-2-oxoindoline-5-carboxamide] to CCOC(=O)C1(CNC(=O)c2ccc3c(c2)CC(=O)N3)CCNCC1 [compound 131, ethyl 4-((2-oxoindoline-5-carboxamido)methyl)piperidine-4-carboxylate], the IC50 rises from 22.3 µM to 56.3 µM (2.5-fold). The first is the more potent here.

First: N[C@H]1CC[C@H](NC(=O)c2cncc(Br)c2)CC1 [compound 116, N-((1r,4r)-4-aminocyclohexyl)-5-bromonicotinamide]
Second: N[C@H]1CC[C@H](NC(=O)c2cncc(Cl)c2)CC1 [compound 117, N-((1r,4r)-4-aminocyclohexyl)-5-chloronicotinamide]
The IC50 of the first is 1.7-fold lower: 51 µM for the first, 87 µM for the second. The first is the more potent here.

N[C@H]1CC[C@H](NC(=O)c2ccc3ccc(O)nc3c2)CC1 [compound 119, N-((1r,4r)-4-aminocyclohexyl)-2-hydroxyquinoline-7-carboxamide] and Nc1ccc(C(=O)N[C@H]2CC[C@H](N)CC2)cn1 [compound 123, 6-amino-N-((1r,4r)-4-aminocyclohexyl)nicotinamide] are within 1.5-fold of each other in IC50: 116 µM for the first, 108 µM for the second.

Going from CC1(CNC(=O)c2ccc3c(c2)CC(=O)N3)CCNCC1 [compound 121, N-((4-methylpiperidin-4-yl)methyl)-2-oxoindoline-5-carboxamide] to CCOC(=O)C(NC(=O)c1ccc2c(c1)CC(=O)N2)C1CCNCC1 (centres unmarked) [compound 122, ethyl 2-(2-oxoindoline-5-carboxamido)-2-(piperidin-4-yl)acetate], the IC50 falls from 65.7 µM to 42.3 µM (1.6-fold). The second is the more potent here.

Going from N[C@H]1CC[C@H](NC(=O)c2cc(-n3cnnc3)ccc2Cl)CC1 [compound 126, N-((1r,4r)-4-aminocyclohexyl)-2-chloro-5-(4H-1,2,4-triazol-4-yl)benzamide] to N[C@H]1CC[C@H](NC(=O)c2nnc[nH]2)CC1 [compound 127, N-((1r,4r)-4-aminocyclohexyl)-4H-1,2,4-triazole-3-carboxamide], the IC50 falls from 32 µM to 16.4 µM (2-fold).

Going from N[C@H]1CC[C@H](NC(=O)Cc2cccnc2)CC1 [compound 129, N-((1r,4r)-4-aminocyclohexyl)-2-(pyridin-3-yl)acetamide] to NCCC(=O)NC1CCC(NC(=O)c2ccc3c(c2)CC(=O)N3)CC1 (centres unmarked) [compound 130, N-(4-(3-aminopropanamido)cyclohexyl)-2-oxoindoline-5-carboxamide], the IC50 falls from greater than 100 µM to 0.29 µM.

— US10266526B2, “Substituted 1,2,3-triazoles as SMYD inhibitors for treating cancer” (EPIZYME, INC., priority 2014, dated 2019)
